The subject of one data set is Chikungunya virus. The data set can be described thus: Evaluation of antiviral activity against Chikungunya virus (EC90). Format: cell-based. To be noted: Chikungunya virus, read-out: EC90 (μM) CHIKV, concentration required for 90% inhibition of CHIKV. The source says: EC90 refers to the concentration of the compound that is required for 90% antagonism or inhibition of CHIKV. EC90 also refers to the concentration of a substance that is required for 90% antagonism or inhibition of CHIKV in vivo.
(§1) The compounds below in Table 1 were synthesized with methods identical or analogous to those described herein. The requisite starting materials were commercially available, described in the literature, or readily synthesized by one skilled in the art of organic synthesis.

Data set [1] in a line: CC50 reported alongside the CHIKV antiviral assay (cytotoxicity). It is filed as cell-based. To be noted: cell line not given.
Source text: as §1

For four molecules, EC90 and CC50 results are on record in patent US10450263B2, “Benzo annulenes as antiviral agents” (Southern Research Institute, priority 2017, dated 2019).

Structures are written as SMILES.

The term CC50 denotes the concentration giving 50% cytotoxicity. The low end stands for harm at low concentration, the high end for better tolerance by the cells. As to `COc1cc2c(cc1NC(=O)c1ccc(OC(F)(F)F)cc1)CCCCC2` [Compound 72, N-(3-Methoxy-6,7,8,9-tetrahydro-5H-benzo[7]annulen-2-yl)-4-(trifluoromethoxy)benzamide], in the data set on Chikungunya virus, the EC90 worked out at 3.3 µM. The molecule also yielded a CC50 in data set [1] of more than 30 µM.

`CC(C)(C)c1ccc(C(=O)Nc2cc3c(cc2OCc2ccc(C(F)(F)F)cc2)CCCCC3)cc1` [Compound 17, 4-(tert-Butyl)-N-(3-((4-(trifluoromethyl)benzyl)oxy)-6,7,8,9-tetrahydro-5H-benzo[7]annulen-2-yl)benzamide]: the EC90 with Chikungunya virus is more than 30 µM. For the same molecule, the half-maximal cytotoxic concentration (CC50) in data set [1] was more than 30 µM.

As to `COc1cc2c(cc1NC(=O)c1ccc(C(C)(C)C)cc1)CCCCN2C` [Compound 65, 4-(tert-butyl)-N-(8-methoxy-1-methyl-2,3,4,5-tetrahydro-1H-benzo[b]azepin-7-yl)benzamide], the EC90 with Chikungunya virus was more than 30 µM. In addition, in data set [1], the CC50 was more than 30 µM.

As to `COc1cc2c(cc1NC(=O)c1ccc3nonc3c1)CCCCC2` [Compound 40, N-(3-Methoxy-6,7,8,9-tetrahydro-5H-benzo[7]annulen-2-yl)benzo[c][1,2,5]oxadiazole-5-carboxamide], the EC90 in the data set with Chikungunya virus is more than 30 µM. For the same molecule, the CC50 in data set [1] was more than 30 µM.
